Results: patent US20240269139A1, “COMPOUNDS FOR TARGETED PROTEIN DEGRADATION OF KINASES” (DANA-FARBER CANCER INSTITUTE, INC., priority 2020, published 2024)
Several values for one entry are separate records, joined by “and”; a condition that tells them apart may be missing. Identical values can stand only once. Like-named read-outs stand apart in the source and are kept apart here.

Legend:
Assay type in all cases: cell-based
[1] = target: T1, protein kinases (human kinome) (Homo sapiens, UniProt O75385); conditions: for logFC: ULK1 (O75385) protein abundance, degrader vs DMSO, down; for logFC ULK1: ULK1 O75385
T1 sequence (O75385 1-1050): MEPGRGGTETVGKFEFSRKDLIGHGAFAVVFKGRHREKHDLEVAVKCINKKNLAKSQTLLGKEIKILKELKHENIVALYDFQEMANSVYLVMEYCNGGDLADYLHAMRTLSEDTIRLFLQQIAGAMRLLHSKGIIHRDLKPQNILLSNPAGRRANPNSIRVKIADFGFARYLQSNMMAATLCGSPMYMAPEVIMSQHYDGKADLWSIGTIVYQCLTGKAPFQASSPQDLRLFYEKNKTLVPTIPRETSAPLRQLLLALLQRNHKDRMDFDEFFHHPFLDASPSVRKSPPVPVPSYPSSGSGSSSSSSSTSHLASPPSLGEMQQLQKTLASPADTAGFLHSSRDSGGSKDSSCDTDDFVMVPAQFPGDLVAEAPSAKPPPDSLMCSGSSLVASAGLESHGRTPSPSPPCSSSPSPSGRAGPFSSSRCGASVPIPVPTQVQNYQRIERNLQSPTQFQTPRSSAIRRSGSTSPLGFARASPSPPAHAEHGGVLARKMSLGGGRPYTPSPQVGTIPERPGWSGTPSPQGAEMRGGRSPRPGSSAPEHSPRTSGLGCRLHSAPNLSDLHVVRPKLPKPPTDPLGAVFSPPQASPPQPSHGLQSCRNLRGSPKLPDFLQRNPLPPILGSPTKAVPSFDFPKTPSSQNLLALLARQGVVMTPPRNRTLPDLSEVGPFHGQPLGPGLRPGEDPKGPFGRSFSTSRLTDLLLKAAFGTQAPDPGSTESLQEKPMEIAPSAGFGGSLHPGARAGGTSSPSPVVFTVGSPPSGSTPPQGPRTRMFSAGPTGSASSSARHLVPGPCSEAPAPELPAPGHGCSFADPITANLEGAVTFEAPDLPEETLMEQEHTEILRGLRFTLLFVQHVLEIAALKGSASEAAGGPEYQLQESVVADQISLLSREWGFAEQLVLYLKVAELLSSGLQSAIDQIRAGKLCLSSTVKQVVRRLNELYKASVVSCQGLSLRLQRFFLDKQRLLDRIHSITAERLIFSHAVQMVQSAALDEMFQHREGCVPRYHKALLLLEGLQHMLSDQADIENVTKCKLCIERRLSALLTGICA

[2] = target: protein kinases (human kinome) (Homo sapiens, UniProt P11802)
Sequence of protein kinases (human kinome) (Homo sapiens, UniProt P11802) (P11802 whole entry): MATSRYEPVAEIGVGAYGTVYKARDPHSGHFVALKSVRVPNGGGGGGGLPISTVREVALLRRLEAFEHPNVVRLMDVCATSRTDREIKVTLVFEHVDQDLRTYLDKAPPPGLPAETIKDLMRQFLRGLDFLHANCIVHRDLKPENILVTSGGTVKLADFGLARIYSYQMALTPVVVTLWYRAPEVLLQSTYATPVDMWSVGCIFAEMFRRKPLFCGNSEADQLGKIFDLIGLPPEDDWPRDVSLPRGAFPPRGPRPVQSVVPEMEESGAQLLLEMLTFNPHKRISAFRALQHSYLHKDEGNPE

[3] = target: protein kinases (human kinome) (Homo sapiens, UniProt P30291); conditions: for logFC of WEE1: WEE1 P30291-1
Sequence of protein kinases (human kinome) (Homo sapiens, UniProt P30291) (P30291 whole entry): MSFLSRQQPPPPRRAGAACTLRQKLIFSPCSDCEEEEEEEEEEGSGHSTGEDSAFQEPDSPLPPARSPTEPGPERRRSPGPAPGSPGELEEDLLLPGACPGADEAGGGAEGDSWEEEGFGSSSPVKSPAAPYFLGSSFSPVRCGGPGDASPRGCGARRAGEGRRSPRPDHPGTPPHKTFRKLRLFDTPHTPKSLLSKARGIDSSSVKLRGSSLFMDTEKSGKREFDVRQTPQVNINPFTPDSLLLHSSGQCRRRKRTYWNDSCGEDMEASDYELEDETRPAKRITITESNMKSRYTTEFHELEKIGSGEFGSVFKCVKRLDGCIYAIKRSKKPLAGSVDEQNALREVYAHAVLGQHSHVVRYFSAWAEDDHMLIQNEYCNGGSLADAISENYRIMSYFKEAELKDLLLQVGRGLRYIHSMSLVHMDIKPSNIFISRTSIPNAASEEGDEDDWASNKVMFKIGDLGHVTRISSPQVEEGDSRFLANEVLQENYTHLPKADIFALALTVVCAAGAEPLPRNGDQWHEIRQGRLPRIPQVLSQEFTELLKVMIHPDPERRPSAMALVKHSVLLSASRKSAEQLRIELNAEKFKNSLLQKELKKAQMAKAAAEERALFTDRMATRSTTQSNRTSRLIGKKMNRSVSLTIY

[4] = target: protein kinases (human kinome) (Homo sapiens, UniProt Q2M2I8)
Sequence of protein kinases (human kinome) (Homo sapiens, UniProt Q2M2I8) (Q2M2I8 whole entry): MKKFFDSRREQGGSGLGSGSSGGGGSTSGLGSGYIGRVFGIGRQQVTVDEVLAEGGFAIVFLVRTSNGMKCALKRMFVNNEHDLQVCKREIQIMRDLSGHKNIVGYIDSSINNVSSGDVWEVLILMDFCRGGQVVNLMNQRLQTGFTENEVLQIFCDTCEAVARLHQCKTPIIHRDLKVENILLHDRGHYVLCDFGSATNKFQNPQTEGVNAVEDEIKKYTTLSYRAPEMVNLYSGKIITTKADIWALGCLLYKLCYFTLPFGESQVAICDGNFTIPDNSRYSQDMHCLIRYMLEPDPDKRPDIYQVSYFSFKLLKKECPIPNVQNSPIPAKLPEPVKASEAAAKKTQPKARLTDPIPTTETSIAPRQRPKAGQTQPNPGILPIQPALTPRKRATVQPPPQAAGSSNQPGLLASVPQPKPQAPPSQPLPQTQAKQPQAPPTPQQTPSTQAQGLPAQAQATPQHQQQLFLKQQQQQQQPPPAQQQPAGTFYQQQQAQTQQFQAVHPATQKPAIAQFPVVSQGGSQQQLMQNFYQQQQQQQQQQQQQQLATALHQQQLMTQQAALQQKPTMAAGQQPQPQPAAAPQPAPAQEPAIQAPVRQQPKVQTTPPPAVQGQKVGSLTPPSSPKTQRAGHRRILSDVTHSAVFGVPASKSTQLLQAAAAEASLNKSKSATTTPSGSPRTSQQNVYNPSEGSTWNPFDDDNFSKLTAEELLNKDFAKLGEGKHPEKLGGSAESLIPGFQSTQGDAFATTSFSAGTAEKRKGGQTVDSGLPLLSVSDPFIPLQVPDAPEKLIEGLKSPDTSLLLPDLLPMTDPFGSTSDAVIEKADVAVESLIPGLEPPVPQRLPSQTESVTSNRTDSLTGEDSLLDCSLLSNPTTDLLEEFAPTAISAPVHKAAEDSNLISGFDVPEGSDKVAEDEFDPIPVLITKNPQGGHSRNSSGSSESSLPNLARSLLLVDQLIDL

[5] = system: protein kinases (human kinome); conditions: for kinases the bifunctional compound degrades: as stated for the structure in the embodiments; for Kinase hits: kinases significantly downregulated vs DMSO (fold change cutoff −1.25, P-value<0.01), ≤8 h, 0.1-5 μM degrader, 7 cell lines; for Total no. kinase hits: number of degraded kinases per library compound
[6] = target: T2, protein kinases (human kinome) (Homo sapiens, UniProt O14965); conditions: experiment wp134
T2 sequence (O14965 1-403): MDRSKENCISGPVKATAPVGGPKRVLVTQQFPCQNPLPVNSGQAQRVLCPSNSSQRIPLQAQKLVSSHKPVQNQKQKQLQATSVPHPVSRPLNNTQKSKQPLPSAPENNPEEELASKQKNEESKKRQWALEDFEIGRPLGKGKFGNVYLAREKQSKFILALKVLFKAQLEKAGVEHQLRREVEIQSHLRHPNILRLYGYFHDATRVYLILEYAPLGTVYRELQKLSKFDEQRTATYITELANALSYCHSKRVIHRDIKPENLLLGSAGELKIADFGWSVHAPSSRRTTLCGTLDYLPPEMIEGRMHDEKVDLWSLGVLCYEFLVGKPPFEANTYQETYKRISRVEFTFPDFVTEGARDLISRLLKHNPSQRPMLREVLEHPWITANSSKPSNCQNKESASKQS

[7] = target: protein kinases (human kinome) (Homo sapiens, UniProt P16591)
Sequence of protein kinases (human kinome) (Homo sapiens, UniProt P16591) (P16591 whole entry): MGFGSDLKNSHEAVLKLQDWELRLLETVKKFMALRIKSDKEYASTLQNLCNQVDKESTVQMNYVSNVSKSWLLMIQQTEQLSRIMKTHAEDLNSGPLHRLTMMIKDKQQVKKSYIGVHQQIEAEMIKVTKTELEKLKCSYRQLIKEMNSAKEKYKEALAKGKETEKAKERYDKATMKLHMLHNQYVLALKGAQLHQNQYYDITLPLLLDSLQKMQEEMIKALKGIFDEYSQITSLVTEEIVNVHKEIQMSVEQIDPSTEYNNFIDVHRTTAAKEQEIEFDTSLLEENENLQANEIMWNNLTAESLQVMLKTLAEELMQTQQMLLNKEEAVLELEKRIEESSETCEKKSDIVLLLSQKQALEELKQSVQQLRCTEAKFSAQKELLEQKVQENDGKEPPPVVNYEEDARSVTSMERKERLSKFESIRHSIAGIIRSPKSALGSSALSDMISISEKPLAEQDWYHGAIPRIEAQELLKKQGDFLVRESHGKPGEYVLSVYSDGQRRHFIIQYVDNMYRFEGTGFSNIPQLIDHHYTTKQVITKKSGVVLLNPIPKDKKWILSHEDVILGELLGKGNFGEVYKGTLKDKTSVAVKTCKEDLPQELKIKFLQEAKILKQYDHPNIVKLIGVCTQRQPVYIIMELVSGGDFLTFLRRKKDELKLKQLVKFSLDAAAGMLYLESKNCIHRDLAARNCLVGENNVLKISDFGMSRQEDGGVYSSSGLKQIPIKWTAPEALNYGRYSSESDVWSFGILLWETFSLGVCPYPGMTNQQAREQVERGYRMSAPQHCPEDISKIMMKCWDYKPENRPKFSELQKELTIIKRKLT

[8] = AURKB Q96GD4-5, experiment wp134

SMILES: Cc1ncsc1-c1ccc([C@H](C)NC(=O)[C@@H]2C[C@@H](O)CN2C(=O)[C@@H](NC(=O)CCCCCN2CCN(c3ccc(Nc4ncc5scc(-c6cccc(NS(C)(=O)=O)c6)c5n4)cc3)CC2)C(C)(C)C)cc1 [RSS0680, (2S,4R)-1-((S)-3,3-Dimethyl-2-(6-(4-(4-((7-(3-(methylsulfonamido)phenyl)thieno[3,2-d]pyrimidin-2-yl)amino)phenyl)piperazin-1-yl)hexanamido)butanoyl)-4-hydroxy-N—((S)-1-(4-(4-methylthiazol-5yl)phenyl)ethyl)pyrrolidine-2-carboxamide]
- logFC [1]: −0.4057 and −0.4996
- logFC ULK1 ([1]; experiment wp080): −0.4057
- logFC ULK1 ([1]; experiment wp117): −0.4996
- logFC CDK4 (P11802) ([2]; experiment wp080): −1.724
- logFC CDK4 (P11802) ([2]; experiment wp117): −1.679
- logFC of WEE1 ([3]; experiment wp080): −2.359
- logFC of WEE1 ([3]; experiment wp117): −1.85
- logFC WEE1 (P30291-1) ([3]; experiment wp080): −2.359
- logFC WEE1 (P30291-1) ([3]; experiment wp117): −1.85
- logFC AAK1 ([4]; AAK1 (Q2M218-1), experiment wp080, down): −1.392
- logFC AAK1 ([4]; AAK1 (Q2M218-1), experiment wp117, down): −1.05
- logFC AAK1 ([4]; AAK1, accession Q2M218-1, experiment wp080, direction of change down): −1.392
- logFC AAK1 ([4]; AAK1, accession Q2M218-1, experiment wp117, direction of change down): −1.05
- kinases the bifunctional compound degrades [5]: AAK1, CDK1, CDK16, CDK2, CDK4, CDK6, EIF2AK4, GAK. LATS1, LIMK2, MAPK6, MAPKAPK5, MARK2, MARK4, MKNK2, NEK9, RPS6KB1, SIK2, SNRK, STK17A, STK17B, STK35, and WEE1
- logFC CDK16 (Q00536-2) ([5]; experiment wp080): −1.002
- logFC CDK16 (Q00536-2) ([5]; experiment wp117): −0.9383
- Kinase hits [5]: AAK1, CDK1, CDK16, CDK2, CDKA, CDK6, EIF2AK4, GAK, LATS1, LIMK2, MAPK6, MAPKAPK5, MARK2, MARK4, MKNK2, NEK9, RPS6KB1, SIK2, SNRK, STK17A, STK17B. STK35, WEE1
- Total no. kinase hits [5]: 26
- logFC HK1 ([5]; protein HK1 (P19367-3), experiment wp080, down): −0.3696

SMILES: O=C(COc1cccc2c1C(=O)N(C1CCC(=O)NC1=O)C2=O)NCCCCCCCN1CCc2cc(Nc3ncc(C4CC4)c(NCCCNC(=O)C4CCC4)n3)ccc2C1 (centres unmarked) [BSJ.04.178]
- logFC AURKA (O14965) [6]: −0.4772
- logFC [1]: −1.683
- logFC ULK1 ([1]; experiment wp134): −1.683
- logFC of WEE1 ([3]; experiment wp134): −0.5688
- logFC WEE1 (P30291-1) ([3]; experiment wp134): −0.5688
- logFC AAK1 ([4]; AAK1 (Q2M218-1), experiment wp134, down): −3.342
- logFC AAK1 ([4]; AAK1, accession Q2M218-1, experiment wp134, direction of change down): −3.342
- logFC [5, 8]: −0.5074
- logFC AURKB [5, 8]: −0.5074
- logFC ([5]; CDK9 (P50750-2) protein abundance, degrader vs DMSO, down): −1.43
- logFC ([5]; MARK3 (P27448-5), experiment wp134): −0.4977
- logFC CDK9 (P50750-2) ([5]; experiment wp134): −1.43
- logFC MARK3 (P27448-5) ([5]; experiment wp134, direction of change down): −0.4977

SMILES: Cc1ccc(NC(=O)c2cccc(C(F)(F)F)c2)cc1N1Cc2cnc(Nc3ccc(N4CCN(CCCOc5cccc6c5C(=O)N(C5CCC(=O)NC5=O)C6=O)CC4)nc3)nc2N(C)C1=O (centres unmarked) [DB0662]
- logFC [1]: −0.3582
- logFC ULK1 ([1]; experiment wp168): −0.3582
- logFC CDK4 (P11802) ([2]; experiment wp168): −0.9883
- logFC of FER (P16591-1) ([7]; Experiment wp168, down): −1.481
- logFC of FER ([7]; FER P16591-1, experiment wp168): −1.481
- logFC FYN ([5]; Accession P06241-2, experiment wp168): −0.5636
- logFC MAP3K20 (Q9NYL2-2) ([5]; Experiment wp168): −1.006
- logFC MAPK8 (P45983-4) ([5]; Experiment wp168, direction down): −0.8961
- logFC FYN ([5]; FYN P06241-2, experiment wp168): −0.5636
- logFC MAPK8 ([5]; MAPK8 P45983-4, experiment wp168): −0.8961
- logFC MAPK14 ([5]; MAPK14, accession Q16539-2, experiment wp168, direction of change down): −1.34
- logFC MAPK14 ([5]; MAPK14 Q16539-2, experiment wp168): −1.34
- logFC ([5]; PTK2B (Q14289-2), experiment wp168, direction down): −3.245
- logFC PTK2B ([5]; PTK2B, accession Q14289-2, experiment wp168, direction of change down): −3.245
- kinases the bifunctional compound degrades [5]: ABL1, ABL2, BLK, BUB1, CDK11B, CDK4, CSK, EPHB6, FER. FYN, GAK, LCK, LIMK1, MAP3K1, MAP3K11, MAP3K20, MAP4K1, MAPK14, MAPK8, MAPK9, MAPKAPK2, MKNK2, PAK4, PDIK1L, PTK2B, RPS6KA1, RPS6KA3, SIK2, SRC, TNK2, UHMK1, ULK1, and YES1
- logFC MAP3K20 (Q9NYL2-2) ([5]; experiment wp168): −1.006
- Kinase hits [5]: ABL1, ABL2, BLK, BUB1, CDK11B, CDK4, CSK, EPHB6, FER, FYN, GAK, LCK, LIMK1, MAP3K1, MAP3K11, MAP3K20, MAP4K1, MAPK14, MAPK8, MAPK9, MAPKAPK2, MKNK2, PAK4, PDIK1L, PTK2B, RPS6KA1, RPS6KA3, SIK2, SRC, TNK2, UHMK1, ULK1,YES1
- Total no. kinase hits [5]: 33
